Reference: paper PMC5218480 (PLoS ONE, 2017)

Tested on: MV-4-11 cells
Test: Gene expression microarray analysis (Affymetrix PrimeView) and GSEA
Assay type: cell-based, human
Design: RFU PODN (11730768_x_at) / Fold change /veh PODN (11730768_x_at) / RFU LINC00158 (11744669_a_at) / Fold change /veh LINC00158 (11744669_a_at) / RFU DUSP10 (11751237_a_at) / Fold change /veh DUSP10 (11751237_a_at) / RFU ID3 (11757404_x_at) / Fold change /veh ID3 (11757404_x_at) / RFU PLEKHG5 (11737974_s_at) / Fold change /veh PLEKHG5 (11737974_s_at) / RFU LRRC4B (11730491_at) / Fold change /veh LRRC4B (11730491_at) / RFU GIMAP4 (11747438_a_at) / Fold change /veh GIMAP4 (11747438_a_at) / RFU KRT8 (11758183_x_at) / Fold change /veh KRT8 (11758183_x_at) / RFU CNN1 (11734310_a_at) / Fold change /veh CNN1 (11734310_a_at) / RFU VPS37D (11726825_at) / Fold change /veh VPS37D (11726825_at) / RFU C10orf10 (11716522_x_at) / Fold change /veh C10orf10 (11716522_x_at) / RFU KIR2DL2 /// KIR2DL4 /// KIR2DL5A /// KIR2DL5B /// KIR2DS1 /// KIR2DS2 /// KIR2DS3 /// KIR2DS4 /// KIR3DL3 /// KIR3DL3 /// KIR3DS1 (11738374_at) / Fold change /veh KIR2DL2 /// KIR2DL4 /// KIR2DL5A /// KIR2DL5B /// KIR2DS1 /// KIR2DS2 /// KIR2DS3 /// KIR2DS4 /// KIR3DL3 /// KIR3DL3 /// KIR3DS1 (11738374_at) / RFU C1QL1 (11718748_at) / Fold change /veh C1QL1 (11718748_at) / RFU TMPRSS4 (11747572_a_at) / Fold change /veh TMPRSS4 (11747572_a_at) / RFU HAMP (11756126_x_at) / Fold change /veh HAMP (11756126_x_at) / RFU RNFT2 (11725882_a_at) / Fold change /veh RNFT2 (11725882_a_at) / RFU NR4A2 (11747474_a_at) / Fold change /veh NR4A2 (11747474_a_at) / RFU ABCC12 (11746883_a_at) / Fold change /veh ABCC12 (11746883_a_at) / RFU TMEM136 (11760407_x_at) / Fold change /veh TMEM136 (11760407_x_at) / RFU CLDN22 /// WWC2 (11732394_at) / Fold change /veh CLDN22 /// WWC2 (11732394_at) / RFU HLA-DPB1 (11760878_x_at) / Fold change /veh HLA-DPB1 (11760878_x_at) / RFU SPINT1 (11716480_a_at) / Fold change /veh SPINT1 (11716480_a_at) / RFU GAP43 (11754022_s_at) / Fold change /veh GAP43 (11754022_s_at) / RFU A4GNT (11735810_at) / Fold change /veh A4GNT (11735810_at) / RFU PRB3 (11715151_x_at) / Fold change /veh PRB3 (11715151_x_at) / RFU TUBB4B (11761932_at) / Fold change /veh TUBB4B (11761932_at) / RFU CAPN14 (11732068_a_at) / Fold change /veh CAPN14 (11732068_a_at) / RFU TMCC2 (11721928_a_at) / Fold change /veh TMCC2 (11721928_a_at) / RFU IRGQ (11745062_a_at) / Fold change /veh IRGQ (11745062_a_at) / RFU FAM174B (11720279_a_at) / Fold change /veh FAM174B (11720279_a_at) / RFU TMPRSS4 (11748680_a_at) / Fold change /veh TMPRSS4 (11748680_a_at) / RFU FAM212B (11763350_a_at) / Fold change /veh FAM212B (11763350_a_at) / RFU PLEKHG5 (11743358_a_at) / Fold change /veh PLEKHG5 (11743358_a_at) / RFU ZSCAN30 (11745921_a_at) / Fold change /veh ZSCAN30 (11745921_a_at) / RFU CMKLR1 (11741424_a_at) / Fold change /veh CMKLR1 (11741424_a_at) / RFU LOC101060620 /// MAPK8IP1 (11723275_at) / Fold change /veh LOC101060620 /// MAPK8IP1 (11723275_at) / RFU SPTSSB (11747773_x_at) / Fold change /veh SPTSSB (11747773_x_at) / RFU PRSS12 (11739890_at) / Fold change /veh PRSS12 (11739890_at) / RFU BIN1 (11741810_x_at) / Fold change /veh BIN1 (11741810_x_at) / RFU WNT11 (11732464_a_at) / Fold change /veh WNT11 (11732464_a_at) / RFU C10orf10 (11716521_a_at) / Fold change /veh C10orf10 (11716521_a_at) / RFU C5orf56 (11738089_at) / Fold change /veh C5orf56 (11738089_at) / RFU CYB561 (11721691_x_at) / Fold change /veh CYB561 (11721691_x_at) / RFU ANKRD19P (11752326_a_at) / Fold change /veh ANKRD19P (11752326_a_at) / RFU OR2T12 /// OR2T33 /// OR2T8 (11738714_s_at) / Fold change /veh OR2T12 /// OR2T33 /// OR2T8 (11738714_s_at) / RFU VCAN (11748164_a_at) / Fold change /veh VCAN (11748164_a_at) / RFU JSRP1 (11732532_at) / Fold change /veh JSRP1 (11732532_at) / RFU KRTAP10-11 (11738290_x_at) / Fold change /veh KRTAP10-11 (11738290_x_at) / RFU MYO3A (11730013_a_at) / Fold change /veh MYO3A (11730013_a_at) / RFU EBF3 (11725865_a_at) / Fold change /veh EBF3 (11725865_a_at) / RFU CAMK2N1 (11719241_x_at) / Fold change /veh CAMK2N1 (11719241_x_at) / RFU C5orf56 (11738088_a_at) / Fold change /veh C5orf56 (11738088_a_at) / RFU OLFML3 (11715873_a_at) / Fold change /veh OLFML3 (11715873_a_at) / RFU LOC100653217 /// NTM (11731650_a_at) / Fold change /veh LOC100653217 /// NTM (11731650_a_at) / RFU MAPK11 (11762145_a_at) / Fold change /veh MAPK11 (11762145_a_at) / RFU FIZ1 (11724087_x_at) / Fold change /veh FIZ1 (11724087_x_at) / RFU OASL (11726364_x_at) / Fold change /veh OASL (11726364_x_at) / RFU SOX15 (11748057_x_at) / Fold change /veh SOX15 (11748057_x_at) / RFU CD79A (11719716_a_at) / Fold change /veh CD79A (11719716_a_at) / RFU HIST1H1D (11736915_at) / Fold change /veh HIST1H1D (11736915_at) / RFU CASKIN2 (11723855_a_at) / Fold change /veh CASKIN2 (11723855_a_at) / RFU LOC730098 (11760151_x_at) / Fold change /veh LOC730098 (11760151_x_at) / RFU OR4N2 (11742367_at) / Fold change /veh OR4N2 (11742367_at) / RFU PRRT2 (11749266_a_at) / Fold change /veh PRRT2 (11749266_a_at) / RFU SNX32 (11753110_a_at) / Fold change /veh SNX32 (11753110_a_at) / RFU CDHR5 (11726645_a_at) / Fold change /veh CDHR5 (11726645_a_at) / RFU RCAN1 (11760418_a_at) / Fold change /veh RCAN1 (11760418_a_at) / RFU FAM167A (11723789_a_at) / Fold change /veh FAM167A (11723789_a_at) / RFU FAM26E (11764081_at) / Fold change /veh FAM26E (11764081_at) / RFU ISYNA1 (11749810_s_at) / Fold change /veh ISYNA1 (11749810_s_at) / RFU ACY1 (11761880_at) / Fold change /veh ACY1 (11761880_at) / RFU 11764098_at / Fold change /veh 11764098_at / RFU SAMD14 (11745864_x_at) / Fold change /veh SAMD14 (11745864_x_at) / RFU NPB (11741838_a_at) / Fold change /veh NPB (11741838_a_at) / RFU TMPRSS6 (11731388_a_at) / Fold change /veh TMPRSS6 (11731388_a_at) / RFU KRTAP10-2 (11738614_at) / Fold change /veh KRTAP10-2 (11738614_at) / RFU ARHGAP8 /// PRR5-ARHGAP8 (11727945_x_at) / Fold change /veh ARHGAP8 /// PRR5-ARHGAP8 (11727945_x_at) / RFU KRTAP5-7 /// NADSYN1 (11734609_at) / Fold change /veh KRTAP5-7 /// NADSYN1 (11734609_at) / RFU RASL12 (11751679_a_at) / Fold change /veh RASL12 (11751679_a_at) / RFU CDKN2B (11736163_a_at) / Fold change /veh CDKN2B (11736163_a_at) / RFU PRF1 (11729649_at) / Fold change /veh PRF1 (11729649_at) / RFU, ZNF638 /// ZNF638-IT1 / Fold change vs veh, ZNF638 /// ZNF638-IT1 / RFU, PANK3 / Fold change vs veh, PANK3 / RFU, SH3YL1 / Fold change vs veh, SH3YL1 / RFU, ZEB2 / Fold change vs veh, ZEB2 / RFU, NRIP1 / Fold change vs veh, NRIP1 / RFU, PTTG1IP / Fold change vs veh, PTTG1IP / RFU, CAPN2 / Fold change vs veh, CAPN2 / RFU, MED14 / Fold change vs veh, MED14 / RFU, SNORA58 / Fold change vs veh, SNORA58 / RFU, C1orf63 / Fold change vs veh, C1orf63 / RFU, LRRFIP1 / Fold change vs veh, LRRFIP1 / RFU, NDUFAF7 / Fold change vs veh, NDUFAF7 / RFU, SLC12A2 / Fold change vs veh, SLC12A2 / RFU, IBTK / Fold change vs veh, IBTK / RFU, ESF1 / Fold change vs veh, ESF1 / Fold change vs veh, TMEM50B / RFU, TAOK1 / Fold change vs veh, TAOK1 / RFU, ACBD3 / Fold change vs veh, ACBD3 / RFU, TMA16 / Fold change vs veh, TMA16 / RFU, RWDD3 / Fold change vs veh, RWDD3 / RFU, BCAT1 / Fold change vs veh, BCAT1 / RFU, EDEM3 / Fold change vs veh, EDEM3 / RFU, TMEM33 / Fold change vs veh, TMEM33 / RFU, WDR75 / Fold change vs veh, WDR75 / RFU, AHCTF1 / Fold change vs veh, AHCTF1 / RFU, TFRC / Fold change vs veh, TFRC / RFU, ZDHHC17 / Fold change vs veh, ZDHHC17 / RFU, NOM1 / Fold change vs veh, NOM1 / RFU, ARL8B / Fold change vs veh, ARL8B / RFU, ZBTB11 / Fold change vs veh, ZBTB11 / RFU, TAMM41 / Fold change vs veh, TAMM41 / RFU, KIAA1704 /// LOC100996395 / Fold change vs veh, KIAA1704 /// LOC100996395 / RFU, ING1 / Fold change vs veh, ING1 / RFU, TRMT61B / Fold change vs veh, TRMT61B / RFU, FUBP3 / Fold change vs veh, FUBP3 / RFU, TP53 / Fold change vs veh, TP53 / RFU, TNKS2 / Fold change vs veh, TNKS2 / RFU, ZFP14 / Fold change vs veh, ZFP14 / RFU, ACTR2 / Fold change vs veh, ACTR2 / RFU, PPP3R1 / Fold change vs veh, PPP3R1 / RFU, PIK3R1 / Fold change vs veh, PIK3R1 / RFU, HNRNPA1 / Fold change vs veh, HNRNPA1 / RFU, RNF170 / Fold change vs veh, RNF170 / RFU, ZNF28 / Fold change vs veh, ZNF28 / RFU, RNGTT / Fold change vs veh, RNGTT / RFU, OGT / Fold change vs veh, OGT / RFU, BRD1 / Fold change vs veh, BRD1 / RFU, MARS / Fold change vs veh, MARS / RFU, ZNF655 / Fold change vs veh, ZNF655 / RFU, FAHD1 / Fold change vs veh, FAHD1 / RFU, BDP1 / Fold change vs veh, BDP1 / RFU, LRRCC1 / Fold change vs veh, LRRCC1 / RFU, ARID1A / Fold change vs veh, ARID1A / RFU, ZNF146 / Fold change vs veh, ZNF146 / RFU, ZNF330 / Fold change vs veh, ZNF330 / RFU, GPN3 / Fold change vs veh, GPN3 / RFU, C9orf123 / Fold change vs veh, C9orf123 / RFU, N4BP2L2 / Fold change vs veh, N4BP2L2 / RFU, ARFIP1 / Fold change vs veh, ARFIP1 / RFU, FAM179B / Fold change vs veh, FAM179B / RFU, BCL10 / Fold change vs veh, BCL10 / RFU, UHRF1BP1L / Fold change vs veh, UHRF1BP1L / RFU, BET1 / Fold change vs veh, BET1 / RFU, CNOT2 / Fold change vs veh, CNOT2 / RFU, ZNF268 / Fold change vs veh, ZNF268 / Fold change vs veh, ZNF507 / RFU, DGCR2 / Fold change vs veh, DGCR2 / RFU, WDSUB1 / Fold change vs veh, WDSUB1 / Fold change vs veh, HSP90B1 /// MIR3652 / RFU, ADSS / Fold change vs veh, ADSS / RFU, GK / Fold change vs veh, GK / RFU, ZNF148 / Fold change vs veh, ZNF148 / RFU, TAF9 / Fold change vs veh, TAF9 / RFU, SLC1A5 / Fold change vs veh, SLC1A5 / RFU, SLMO2 / Fold change vs veh, SLMO2 / RFU, ABCC4 / Fold change vs veh, ABCC4 / RFU, LOC101060439 /// RAP1B / Fold change vs veh, LOC101060439 /// RAP1B / RFU, RFX7 / Fold change vs veh, RFX7 / RFU, GTPBP10 / Fold change vs veh, GTPBP10 / RFU, CNEP1R1 / Fold change vs veh, CNEP1R1 / RFU, BIVM-ERCC5 /// ERCC5 / Fold change vs veh, BIVM-ERCC5 /// ERCC5 / RFU, ILF3 / Fold change vs veh, ILF3 / RFU 11762660_at / Fold change /veh 11762660_at / RFU VCAN (11757783_s_at) / Fold change /veh VCAN (11757783_s_at) / RFU DDX43 (11728927_at) / Fold change /veh DDX43 (11728927_at) / RFU KRT8 (11758188_x_at) / Fold change /veh KRT8 (11758188_x_at) / RFU NKD1 (11759106_at) / Fold change /veh NKD1 (11759106_at) / RFU SRD5A1 (11742802_a_at) / Fold change /veh SRD5A1 (11742802_a_at) / RFU TPSAB1 /// TPSB2 (11721975_s_at) / Fold change /veh TPSAB1 /// TPSB2 (11721975_s_at) / RFU GSTM3 (11746129_a_at) / Fold change /veh GSTM3 (11746129_a_at) / RFU IL23R (11737362_x_at) / Fold change /veh IL23R (11737362_x_at) / RFU TMEM51 (11727254_a_at) / Fold change /veh TMEM51 (11727254_a_at) / RFU PIWIL2 (11732686_x_at) / Fold change /veh PIWIL2 (11732686_x_at) / RFU ORM1 (11744905_x_at) / Fold change /veh ORM1 (11744905_x_at) / RFU CCDC152 (11743942_at) / Fold change /veh CCDC152 (11743942_at) / RFU ECM1 (11717891_a_at) / Fold change /veh ECM1 (11717891_a_at) / RFU IL23R (11748794_a_at) / Fold change /veh IL23R (11748794_a_at) / RFU TNFAIP8L3 (11732012_x_at) / Fold change /veh TNFAIP8L3 (11732012_x_at) / RFU MBOAT4 (11741988_at) / Fold change /veh MBOAT4 (11741988_at) / RFU 11764193_at / Fold change /veh 11764193_at / RFU TMEM53 (11763286_at) / Fold change /veh TMEM53 (11763286_at) / RFU MAGEB2 (11727129_at) / Fold change /veh MAGEB2 (11727129_at) / RFU TMEM200A (11744735_a_at) / Fold change /veh TMEM200A (11744735_a_at) / RFU CCDC152 (11751479_a_at) / Fold change /veh CCDC152 (11751479_a_at) / RFU FAM211A (11726209_a_at) / Fold change /veh FAM211A (11726209_a_at) / RFU RGS16 (11746705_a_at) / Fold change /veh RGS16 (11746705_a_at) / RFU VCAN (11755009_s_at) / Fold change /veh VCAN (11755009_s_at) / RFU RHOB (11743442_s_at) / Fold change /veh RHOB (11743442_s_at) / RFU RGS16 (11720943_a_at) / Fold change /veh RGS16 (11720943_a_at) / RFU RGS16 (11720944_at) / Fold change /veh RGS16 (11720944_at) / RFU, VPS4B / Fold change vs veh, VPS4B / RFU, CREB1 / Fold change vs veh, CREB1 / RFU, DNAJC13 / Fold change vs veh, DNAJC13 / RFU, GNAQ / Fold change vs veh, GNAQ / RFU, CDK5R1 / Fold change vs veh, CDK5R1 / RFU, ZRANB3 / Fold change vs veh, ZRANB3 / RFU, CUL4A / Fold change vs veh, CUL4A / RFU, CCNY / Fold change vs veh, CCNY / RFU, UFL1 / Fold change vs veh, UFL1 / RFU, COG3 / Fold change vs veh, COG3 / RFU, DIAPH2 / Fold change vs veh, DIAPH2 / RFU, SKA2 / Fold change vs veh, SKA2 / RFU, AFF3 / Fold change vs veh, AFF3 / RFU, LMF1 / Fold change vs veh, LMF1 / RFU, IPO11 / Fold change vs veh, IPO11 / RFU, DFFB / Fold change vs veh, DFFB / RFU, FOXP1 / Fold change vs veh, FOXP1 / RFU, CARD8 / Fold change vs veh, CARD8 / RFU, STRN3 / Fold change vs veh, STRN3 / RFU, ADK / Fold change vs veh, ADK / RFU, RASSF2 / Fold change vs veh, RASSF2 / RFU, WIPF1 / Fold change vs veh, WIPF1 / RFU, LARP1B / Fold change vs veh, LARP1B / RFU, RASA1 / Fold change vs veh, RASA1 / RFU, RB1 / Fold change vs veh, RB1 / RFU, PPFIA1 / Fold change vs veh, PPFIA1 / RFU, MAT2A / Fold change vs veh, MAT2A / RFU, CCT5 / Fold change vs veh, CCT5 / RFU, WDR92 / Fold change vs veh, WDR92 / RFU, CUX1 / Fold change vs veh, CUX1 / RFU, TTC7A / Fold change vs veh, TTC7A / RFU, TMEM135 / Fold change vs veh, TMEM135 / RFU, DEPTOR / Fold change vs veh, DEPTOR / RFU, CPM / Fold change vs veh, CPM / RFU, DNAJB6 / Fold change vs veh, DNAJB6 / RFU, CACNA2D3 / Fold change vs veh, CACNA2D3 / RFU, DTX4 / Fold change vs veh, DTX4 / RFU, TFCP2 / Fold change vs veh, TFCP2 / RFU, GMCL1 /// GMCL1P1 / Fold change vs veh, GMCL1 /// GMCL1P1 / RFU, AEBP2 / Fold change vs veh, AEBP2 / RFU, SNHG1 /// SNORD22 /// SNORD25 /// SNORD26 /// SNORD27 /// SNORD28 /// SNORD29 /// SNORD31 / Fold change vs veh, SNHG1 /// SNORD22 /// SNORD25 /// SNORD26 /// SNORD27 /// SNORD28 /// SNORD29 /// SNORD31 / Fold change (Aza/veh), C12orf56 (ProbeSet 11735607_a_at) / Fold change (ACY-1035/veh), C12orf56 (ProbeSet 11735607_a_at) / Fold change (Aza/veh), FGFR1OP (ProbeSet 11751329_s_at) / Fold change (ACY-1035/veh), FGFR1OP (ProbeSet 11751329_s_at) / Fold change (Aza/veh), VPS36 (ProbeSet 11739960_a_at) / Fold change (ACY-1035/veh), VPS36 (ProbeSet 11739960_a_at) / RFU SYPL1 (11715823_x_at) / Fold change /veh SYPL1 (11715823_x_at) / RFU IGFBP7 (11715501_s_at) / Fold change /veh IGFBP7 (11715501_s_at) / RFU REEP3 (11722064_at) / Fold change /veh REEP3 (11722064_at) / RFU IGLL1 (11728026_x_at) / Fold change /veh IGLL1 (11728026_x_at): dose or concentration left out as unconfirmed
Settings: MV-4-11 cells, 48 hours

In the case of `Nc1ncn([C@@H]2O[C@H](CO)[C@@H](O)[C@H]2O)c(=O)n1` [azacitidine], the “Fold change /veh IRGQ (11745062_a_at)” value is reported as 1.17.
